According to patent publication US20030003451A1, “Novel G protein-coupled receptors” (priority 2000, published 2003):

Experiments:
[1] = target: T1, nGPCR-51 (Homo sapiens, UniProt Q969V1); assay: Radioligand saturation binding assay, membranes of cells transiently expressing nGPCR-51
T1 construct: expressed in transfected cells
Method: HEK 293 or COS 7 cells transiently expressing nGPCR-51, or CHO K-I cells stable expressing nGPCR-51, were grown to sub-confluence (2 days post-transfection for transients), harvested from flasks in Dulbecco's PBS and pelleted by low speed centrifugation (2500 rpm) for 10 minutes. Cell pellets were homogenized in 10 ml tissue buffer (50 mM Hepes, 10 mM MgCl2, 2 mM EGTA, 1 μg/ml aprotinin, 1 μg/ml leupeptin hemisulfate, 1 μg/ml pepstatin A, pH 7.0) using a dounce, 10 strokes. Homogenate was centrifuged at 47,000× g for 15 minutes. Membrane pellet was resuspended in 1 ml tissue buffer using the dounce, 10 strokes. An aliquot of the membrane preparation was used to determine protein concentration. For measurement of saturation binding, 10 μg of cell membranes were incubated with various concentrations of [^125I] Peptide A (iodinated by routine procedures via the Tyr residue) in 300 μl binding assay buffer (tissue buffer plus 0.15 mM Bacitracin and 0.1% ovalbumin) for 90 minutes at room temperature in 96-well plates. Non-specific binding was defined by the inclusion of 1 μM Peptide A. After the binding incubation, plates were harvested onto GF/C filters presoaked in 0.3% non-fat dry milk. […] Filter plates were then counted in a Packard Topcount™ 96-well microplate scintillation counter. Data were analyzed using GraphPad Prism (San Diego, Calif.) and Kd and Bmax values were calculated.

[2] = system: Untransfected cells; assay: Radioligand binding assay, untransfected cells

T1 sequence (Q969V1 whole entry): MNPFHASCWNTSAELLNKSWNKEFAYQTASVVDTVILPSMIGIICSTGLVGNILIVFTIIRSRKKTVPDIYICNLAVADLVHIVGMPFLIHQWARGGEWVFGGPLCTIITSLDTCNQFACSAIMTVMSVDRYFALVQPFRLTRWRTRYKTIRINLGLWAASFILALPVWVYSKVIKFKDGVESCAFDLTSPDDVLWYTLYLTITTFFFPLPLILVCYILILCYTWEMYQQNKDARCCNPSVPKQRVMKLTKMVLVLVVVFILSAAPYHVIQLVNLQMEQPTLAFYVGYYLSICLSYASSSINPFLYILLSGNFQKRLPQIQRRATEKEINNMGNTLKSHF

For `CSCC[C@@H]1NC(=O)[C@@H](NC(=O)[C@H](CCCNC(=N)N)NC(=O)[C@H](CC(C)C)NC(=O)[C@H](CCSC)NC(=O)[C@H](CC(=O)O)NC(=O)[C@H](Cc2ccccc2)NC(=O)[C@@H](N)CC(=O)O)CSSC[C@@H](C(=O)N[C@@H](Cc2c[nH]c3ccccc23)C(=O)N[C@@H](CCC(N)=O)C(=O)N[C@H](C(=O)O)C(C)C)NC(=O)[C@@H]2CCCN2C(=O)[C@H](CCCNC(=N)N)NC(=O)[C@H](Cc2ccc(O)c(I)c2)NC(=O)[C@H](C(C)C)NC(=O)[C@H](CCCNC(=N)N)NC(=O)CNC(=O)[C@H](CC(C)C)NC1=O` [[^125I] Peptide A], the Bmax ([1]; COS 7 cells transiently expressing nGPCR-51) was 75 finol/mg, the “estimated Bmax” value ([1]; HEK 293 cells transiently expressing nGPCR-51) was ~108 fmol/mg and the specific radioligand binding [2] was “no specific radioligand binding”.
